Assay results: patent US20070049564A1 (Wyeth, priority 2005, published 2007)
≈ marks a conversion by molar mass, not a printed value. Read-outs that look alike come from different tables or passages of the source.

What was measured:
E. coli GC 2231 = test: MIC, broth microdilution; conditions: Escherichia coli, GC2231, E. coli GC 2231
E. coli GC 2235 = test: MIC, broth microdilution; conditions: Escherichia coli, GC2235, E. coli GC 2235
E. coli GC 2232 = test: MIC, broth microdilution; conditions: Escherichia coli, GC2232, E. coli GC 2232
E. coli GC 2270 = test: MIC, broth microdilution; conditions: Escherichia coli, GC2270, E. coli GC 2270
E. coli GC 2271 = test: MIC, broth microdilution; conditions: Escherichia coli, GC2271, E. coli GC 2271
Procedure: (§1) Antimicrobial susceptibility testing. The in vitro activities of the antibiotics are determined by the broth microdilution method as recommended by the National Committee for Clinical Laboratory Standards (NCCLS) (1). Mueller-Hinton II broth (MHBII)(BBL Cockeysville, Md.) is the medium employed in the testing procedures. Microtiter plates containing serial dilutions of each antimicrobial agent are inoculated with each organism to yield the appropriate density (10^5 CFU/ml) in a 100 μl final volume. The plates are incubated for 18-22 hours at 35° C. in ambient air.
Representative compounds were first incubated in mouse serum for an hour prior to the in vitro testing against a panel of selected gram-positive and gram-negative bacteria strains. All compounds were also pre-incubated in water for an hour prior to testing as control.

E. coli GC 4559 = test: MIC, broth microdilution; conditions: Escherichia coli, GC4559, E. coli GC 4559
E. coli GC 4560 = test: MIC, broth microdilution; conditions: Escherichia coli, GC4560, E. coli GC 4560
E. coli GC 3226 = test: MIC, broth microdilution; conditions: Escherichia coli, GC3226, E. coli GC 3226
E. coli GC 2203 = test: MIC, broth microdilution; conditions: Escherichia coli, GC2203, E. coli GC 2203
S. typhimurium GC 2172 = test: MIC, broth microdilution; conditions: Salmonella enterica, TYPHIMURIUM, S. typhimurium GC 2172
P. aeruginosa GC 2214 = test: MIC, broth microdilution; conditions: Pseudomonas aeruginosa, GC2214, P. aeruginosa GC 2214
S. aureus GC 6467 = test: MIC, broth microdilution; conditions: Staphylococcus aureus, GC6467, S. aureus GC 6467
S. aureus GC 2216 = test: MIC, broth microdilution; conditions: Staphylococcus aureus, GC2216, S. aureus GC 2216
S. aureus GC 6335 = test: MIC, broth microdilution; conditions: Staphylococcus aureus, GC6335, S. aureus GC 6335
E. faecalis GC 2267 = test: MIC, broth microdilution; conditions: Enterococcus faecalis, GC2267, E. faecalis GC 2267
E. faecalis GC 2242 = test: MIC, broth microdilution; conditions: Enterococcus faecalis, GC2242, E. faecalis GC 2242
E. faecium GC 4556 = test: MIC, broth microdilution; conditions: Enterococcus faecium, GC4556, E. faecium GC 4556
Procedure: as §1
(§2) Representative compounds were first incubated in mouse serum for an hour prior to the in vitro testing against a panel of selected gram-positive and gram-negative bacteria strains. All compounds were also pre-incubated in water for an hour prior to testing as control. Representative compounds of Formula I were incubated in human serum prior to MIC determination.

S. pneumoniae* GC 4465 = test: MIC, broth microdilution; conditions: Streptococcus pneumoniae, S. pneumoniae* GC 4465
Procedure: as §1, §2

S. agalactiae GC 4564 = test: MIC, broth microdilution; conditions: Streptococcus agalactiae, GC4564, S. agalactiae GC 4564
Staph. aureus Smith = test: In vivo activity (oral, iv; ED50) against Staph. aureus Smith in mice
Procedure: Representative examples of compounds of Formula I were tested for the oral efficacy using S. aureus Smith in mice.

Question: With CCCN(CC(=O)Nc1cc(N(C)C)c2c(c1O)C(=O)C1=C(O)[C@]3(O)C(=O)C(C(N)=O)=C(O)[C@@H](N(C)C)[C@@H]3C[C@@H]1C2)C(=O)OCC(C)C [Example 16, isobutyl 2-{[(5aR,6aS,7S,10aS)-9-(aminocarbonyl)-4,7-bis(dimethylamino)-1,8,10a,11-tetrahydroxy-10,12-dioxo-5,5a,6,6a,7,10,10a,12-octahydrotetracen-2-yl]amino}-2-oxoethyl(propyl)carbamate] as the molecule, how does the MIC (E. coli GC 2231; Mouse Serum pre-incubation) read?
Answer: Its MIC is greater than 64 µg/mL.

Question: And the MIC (E. coli GC 2231; Water pre-incubation)?
Answer: Its MIC is greater than 64 µg/mL.

Question: What about the MIC (E. coli GC 2235; Mouse Serum pre-incubation) of the same molecule?
Answer: Its MIC is 16 µg/mL (≈ 23.8 µM).

Question: And the MIC (E. coli GC 2235; Water pre-incubation)?
Answer: Its MIC is 64 µg/mL (≈ 95.3 µM).

Question: What about the MIC (E. coli GC 2232; Mouse Serum pre-incubation) of the same molecule?
Answer: The MIC was greater than 64 µg/mL.

Question: And the MIC (E. coli GC 2232; Water pre-incubation)?
Answer: Its MIC is greater than 64 µg/mL.

Question: What about the MIC (E. coli GC 2270; Mouse Serum pre-incubation) of the same molecule?
Answer: Its MIC is greater than 64 µg/mL.

Question: What about the MIC (E. coli GC 2270; Water pre-incubation) of the same molecule?
Answer: Its MIC is greater than 64 µg/mL.

Question: What about the MIC (E. coli GC 2271; Mouse Serum pre-incubation) of the same molecule?
Answer: The MIC was greater than 64 µg/mL.

Question: And the MIC (E. coli GC 2271; Water pre-incubation)?
Answer: Its MIC is greater than 64 µg/mL.

Question: What about the MIC (E. coli GC 4559; Mouse Serum pre-incubation) of the same molecule?
Answer: The MIC was greater than 64 µg/mL.

Question: What about the MIC (E. coli GC 4559; Water pre-incubation) of the same molecule?
Answer: The MIC was greater than 64 µg/mL.

Question: What about the MIC (E. coli GC 4560; Mouse Serum pre-incubation) of the same molecule?
Answer: Its MIC is 2 µg/mL (≈ 2.98 µM).

Question: What about the MIC (E. coli GC 4560; Water pre-incubation) of the same molecule?
Answer: The MIC was 4 µg/mL (≈ 5.95 µM).

Question: And the MIC (E. coli GC 3226; Mouse Serum pre-incubation)?
Answer: The MIC was 64 µg/mL (≈ 95.3 µM).

Question: And the MIC (E. coli GC 3226; Water pre-incubation)?
Answer: Its MIC is greater than 64 µg/mL.

Question: And the MIC (E. coli GC 2203; Mouse Serum pre-incubation)?
Answer: The MIC was 16 µg/mL (≈ 23.8 µM).

Question: What about the MIC (E. coli GC 2203; Water pre-incubation) of the same molecule?
Answer: Its MIC is 64 µg/mL (≈ 95.3 µM).

Question: And the MIC (S. typhimurium GC 2172; Mouse Serum pre-incubation)?
Answer: Its MIC is greater than 64 µg/mL.

Question: What about the MIC (S. typhimurium GC 2172; Water pre-incubation) of the same molecule?
Answer: The MIC was greater than 64 µg/mL.

Question: What about the MIC (P. aeruginosa GC 2214; Mouse Serum pre-incubation) of the same molecule?
Answer: The MIC was greater than 64 µg/mL.

Question: What about the MIC (P. aeruginosa GC 2214; Water pre-incubation) of the same molecule?
Answer: Its MIC is greater than 64 µg/mL.

Question: And the MIC (S. aureus GC 6467; Mouse Serum pre-incubation)?
Answer: Its MIC is 8 µg/mL (≈ 11.9 µM).

Question: And the MIC (S. aureus GC 6467; Water pre-incubation)?
Answer: Its MIC is 8 µg/mL (≈ 11.9 µM).

Question: And the MIC (S. aureus GC 2216; Mouse Serum pre-incubation)?
Answer: The MIC was 2 µg/mL (≈ 2.98 µM).

Question: And the MIC (S. aureus GC 2216; Water pre-incubation)?
Answer: Its MIC is 4 µg/mL (≈ 5.95 µM).

Question: And the MIC (S. aureus GC 6335; Mouse Serum pre-incubation)?
Answer: Its MIC is 4 µg/mL (≈ 5.95 µM).

Question: And the MIC (S. aureus GC 6335; Water pre-incubation)?
Answer: Its MIC is 4 µg/mL (≈ 5.95 µM).

Question: What about the MIC (E. faecalis GC 2267; Mouse Serum pre-incubation) of the same molecule?
Answer: The MIC was 4 µg/mL (≈ 5.95 µM).

Question: What about the MIC (E. faecalis GC 2267; Water pre-incubation) of the same molecule?
Answer: The MIC was 8 µg/mL (≈ 11.9 µM).

Question: What about the MIC (E. faecalis GC 2242; Mouse Serum pre-incubation) of the same molecule?
Answer: The MIC was 8 µg/mL (≈ 11.9 µM).

Question: What about the MIC (E. faecalis GC 2242; Water pre-incubation) of the same molecule?
Answer: The MIC was 8 µg/mL (≈ 11.9 µM).

Question: And the MIC (E. faecium GC 4556; Mouse Serum pre-incubation)?
Answer: The MIC was 4 µg/mL (≈ 5.95 µM).

Question: What about the MIC (E. faecium GC 4556; Water pre-incubation) of the same molecule?
Answer: Its MIC is 8 µg/mL (≈ 11.9 µM).

Question: What about the MIC (S. pneumoniae* GC 4465; Mouse Serum pre-incubation) of the same molecule?
Answer: Its MIC is 4 µg/mL (≈ 5.95 µM).

Question: And the MIC (S. pneumoniae* GC 4465; Water pre-incubation)?
Answer: The MIC was 4 µg/mL (≈ 5.95 µM).

Question: What about the MIC (S. agalactiae GC 4564; Mouse Serum pre-incubation) of the same molecule?
Answer: Its MIC is 16 µg/mL (≈ 23.8 µM).

Question: And the MIC (S. agalactiae GC 4564; Water pre-incubation)?
Answer: The MIC was 16 µg/mL (≈ 23.8 µM).

Question: What about the ED50 (Staph. aureus Smith; Staphylococcus aureus, in Mus musculus, po, read-out: ED50 Staph Smith SOD) of the same molecule?
Answer: Its ED50 is greater than 32 mg/kg.

Question: What about the ED50 (Staph. aureus Smith; iv, read-out: ED50 Staph Smith SIV) of the same molecule?
Answer: The ED50 was greater than 2 mg/kg.
